Measurements taken from US7183099B2, “Inhibitors of autoinducer transporters” (Princeton University, priority 2001, dated 2007).
Entries after “also recorded” stand apart in the source; their conditions may differ. Read-outs that look alike come from different tables or passages of the source.

Assays:
[1] = test system: V. harveyi luxN, luxS double mutant reporter strain; assay: Luminescence response of V. harveyi luxN, luxS double mutant reporter; format: cell-based, Vibrio harveyi; settings: culture fluids of MM30 (AI-1) and BB152 (AI-2) as sources
Description: Verification that the luxN, luxS Double Mutant Responds to AI-2. […] This was verified in a luminescence assay for response to V. harveyi AI-1 and AI-2. V. harveyi strain MM30 (luxS::Tn5) that is phenotypically AI-1^+, AI-2^−, and V. harveyi strain BB152 (luxM::Tn5) that is phenotypically AI-1^−, AI-2^+ were used as the sources of AI-1 and AI-2 respectively. The AI-1 and AI-2 present in culture fluids of these strains was tested for stimulation of light production of the V. harveyi luxN, luxS double mutant reporter strain. In this assay, autoinducer preparations from MM30, BB152 or sterile medium controls were added to the wells of microtiter plates, followed by the addition of the V. harveyi reporter strain. The resulting light production was monitored using a liquid scintillation counter in the chemiluminescence mode. Maximal stimulation of light production in the V. harveyi luxN, luxS reporter strain was compared to that produced by the Sensor 1^+, Sensor 2^− V. harveyi strain BB886 and the Sensor 1^−, Sensor 2^+V. harveyi strain BB170. These two V. harveyi strains are routinely used in this assay as reporters of AI-1 and AI-2 activity respectively.

Lsr ABC transporter [2] = biological target: T1, Lsr ABC transporter (Salmonella typhimurium, UniProt Q8ZKQ1); assay: Removal of exogenous AI-2 from S. typhimurium culture fluids; format: cell-based; settings: for input AI-2 activity remaining: wild type lsrR strain
T1 construct: containing a wild type lsr operon; endogenous in cells; host or cells: S. typhimurium 14028 derivatives in a luxS null background (parent SS007, luxS::T-POP; also MET342, ΔlsrR)
Description: (§1) Cultures of S. typhimurium luxS null strains containing a wild type lsr operon or containing mutations inactivating lsr genes were grown to mid-exponential phase in LB at 37° C. AI-2 prepared by our in vitro method was added to the cultures, and the cultures were incubated with the AI-2 for an hour. Subsequently, the cells were removed from the culture fluid by centrifugation, and the resulting cell-free culture fluids were assayed for AI-2 activity using the V. harveyi AI-2 bioassay. This assay involves measuring the increase in light production of a V. harveyi quorum sensing reporter strain that induces bioluminescence exclusively in response to the presence of AI-2. In the present experiment, the bioassay allowed us to determine the level of AI-2 activity remaining in the culture fluids of the different S. typhimurium mutants. Since all the S. typhimurium strains we used in this experiment contained null mutations in luxS, the only AI-2 that could be present in the cell-free culture fluids came from that that we added exogenously.
(§2) Relative levels of AI-2 in cell-free culture fluids of S. typhimurium strains of interest were measured using a V. harveyi bioluminescence assay, as described previously (Bassler et al., 1993; Bassler et al., 1997). Cell-free culture fluids were prepared as described (Surette and Bassler, 1998; Surette et al., 1999). These preparations were assayed for AI-2 activity at 10% (vol/vol), using V. harveyi reporter strain BB170 (luxN::Tn5), as described (Bassler et al., 1993). AI-2 activity is reported as fold induction over background of bioluminescence. To examine the role of Lsr in the uptake of AI-2, cultures of S. typhimurium were grown overnight, diluted 1:100 into fresh LB, and grown for a total of 4 hours. During the final hour of growth, the cells were incubated with 70 μM in vitro prepared AI-2 for specified times (Schauder et al., 2001). Subsequently, the cultures were chilled on ice and cell-free culture fluids were prepared. The AI-2 remaining in these preparations was measured in the V. harveyi bioluminescence assay. Assays were performed in duplicate.

Lsr ABC transporter [3] = assay: as above; format: cell-based; settings: 1 h
Description: as §1, §2

[4] = test system: ftsQ1p2p-lacZ reporter (SdiA); assay: SdiA regulated ftsQ1p2p-lacZ reporter assay; format: cell-based, E. coli; settings: 10% osmotic shock fluids containing AI-2 activity, 2 h
Description: Analysis of the effect of autoinducer on SdiA regulated gene expression. A sequence that includes the ftsQ1p and ftsQ2p promoters (Wang et al., 1991, supra) was amplified from E. coli MG1655 chromosomal DNA using the following primers: • ftsQ1p, 5′-[…]-3′ (SEQ ID NO: 19); • ftsQ2p, 5′-[…]-3′ (SEQ ID NO: 20).
The amplified product contained both the ftsQ promoters and the first 14 codons of the ftsQ gene flanked by BamHI and Bg1II sites. The ftsQ1p2p PCR product was cloned into the BamHI site of vector pMLB1034 (Silhavy et al., Experiments with Gene Fusions, Cold Spring Harbor Press, 1984) to generate a lacZ fusion that contained the promoters, ribosome binding site, and initiation codon of ftsQ. A correctly oriented clone, pMS207, and a clone containing the ftsQ1p2p insert in the opposite orientation, pMS209, were chosen for further analysis. Both inserts were sequenced to ensure that no errors were introduced during the PCR reaction.
For ftsQ regulation in E. coli, the plasmids pMS207 and pMS209 were transformed into E. coli strain MC4100 (Silhavy et al., 1984, supra), and the transformants were grown overnight in LB containing 100 mg/L ampicillin at 30° C. with aeration. For rck regulation, S. typhimurium strains BA1105 (rck::MudJ) and BA1305 (rck::MudJ sdiA) were grown overnight in LB containing 100 mg/L kanamycin at 30° C. with aeration. […]

[5] = Stability characterisation of the signaling activity; format: physicochemical
[6] = S. typhimurium cell-free spent culture fluids; cited from earlier work
[7] = wild type lsr strain (luxS null), 1 h incubation

In the case of `CC(=O)C(=O)C(O)CO` (centres unmarked) [AI-2, 4,5-dihydroxy-2,3-pentanedione], the “stimulation of light production by exogenous autoinducer” value [1] is reported as “stimulated to produce light”, the “activity gone from the culture fluids” value (Lsr ABC transporter [2]; inactivation of lsrR, 1 h incubation) is reported as “over 99%” and the “AI-2 activity remaining (induction of the bioassay strain)” value (Lsr ABC transporter [2]; [7]) is reported as 80 fold. The “disappearance of AI-2 activity from the culture fluid” value (Lsr ABC transporter [2]; [7]) was 92%, the “input AI-2 activity remaining” value (Lsr ABC transporter [2]; 2 min) was 97% and the “input AI-2 activity remaining” value (Lsr ABC transporter [2]; 15 min) was 85%. The “input AI-2 activity remaining” value (Lsr ABC transporter [2]; 30 min) was 82%, the “input AI-2 activity remaining” value (Lsr ABC transporter [2]; 45 min) was 75% and the “input AI-2 activity remaining” value (Lsr ABC transporter [2]; 60 min) was 6%. For the same molecule, the “elimination of AI-2 from the culture fluids” value (Lsr ABC transporter [3]; MudJ insertion mutants in lsrA, lsrC and lsrB) was “unable to eliminate AI-2 from the culture fluids”, the “level of AI-2 versus input” value (Lsr ABC transporter [3]; ΔlsrR, lsrC::MudJ double mutant) was “the level of AI-2 did not decrease compared to the input activity” and the “change in β-galactosidase level of MC4100/pMS207” value [4] was “this level of activity did not change under any of the conditions tested here”. For the same molecule, the “heat resistance of the activity” value [5] was “heat resistant to about 80 but not 100 °C”, the “stability of the activity to acid and base” value (from here on “stability of the activity”) [5] was “acid stable and base labile” and the “time the activity is stable in cell-free fluids” value ([5]; cell-free culture supernatants and 0.4 M NaCl osmotic shock fluids, 30 °C) was “at least 24 h”. The “heat resistance of the activity” value ([5]; listed as signaling activity) was “heat resistant to 80 but not 100 °C”, the “stability of the activity” value ([5]; listed as signaling activity) was “acid stabile and base labile” and the “heat resistance of the activity” value ([5]; listed as signaling compound) was “heat resistant to 80 °C but not 100 °C”. For the same molecule, the “stability of the activity” value ([5]; listed as signaling compound) was “acid stable and base labile” and the “stability of AI-2 in cell-free culture fluids” value [6] was “stable for long periods of time; also recorded: remains active for long periods of time”.
